Laboratory results from patent US20060188879A1, “Crh responsive genes in cns” (Janssen Pharmaceutica N.V., priority 2002, published 2006).
“Also recorded” adds a separate entry of the source.

Experiments:
Format in all cases: in vivo, mouse
[1] = tested on: neurotensin receptor 1 (Ntsr1); assay: Quantitative RT-PCR of Ntsr1 mRNA in brain areas of treated WT and CRF-OE mice; conditions: 10 mg/kg, 2 times per day for 5 days, 16 hrs after last treatment, hippocampus
Experimental: (§1) Animal housing and treatment—Male transgenic CRF overexpressing C57BL/6J mice (CRF-OE or TG) and their wild-type littermates (WT) were maintained in an specific pathogen free facility that meets all national and European requirements for animal care. Mice were housed individually 4 weeks before the start of the experiment in a climate-controlled animal colony with a 12 h dark-light cycle (light on 7:00 EST) with free access to food and water. Prior to treatment 3 month old mice were randomized over three groups each comprising 4 wild-type and 4 transgenic animals. One group received no treatment, a second group received vehicle injection 5 days, 2 times per day (10% cyclodextran (CD), pH4) and a third group received 10 mg/kg of a CRH-R1 specific antagonist R121919 in 10% CD following the same regime. 16 hrs after last treatment animals were sacrificed for dissection of brain areas and subsequent isolation of RNA. […]
Quantitative RT-PCR—Microarray data were confirmed using real time PCR analysis. […] Quantitative PCR was performed on a ABIPrism 7700 cycler (Applied Biosystems) using a Taqman PCR kit. […] A linear regression line calculated from the standard curves allowed the determination of transcript levels in RNA samples from the different treatment groups at each brain area.

[2] = tested on: neurotensin receptor 2 (Ntsr2); assay: Quantitative RT-PCR / microarray of Ntsr2 mRNA in brain areas of treated WT and CRF-OE mice; conditions: 10 mg/kg, 2 times per day for 5 days, 16 hrs after last treatment
Experimental: as §1
Microarray hybridization—cRNA was prepared as follows. […] Subsequently arrays were scanned with a HP-Laserscanner and data were analyzed with the Microarray Suite Software (Affymetrix). […] Quality of the experiment was assessed based on the percentages present calls (see table).
Quantitative RT-PCR—Microarray data were confirmed using real time PCR analysis. […] Quantitative PCR was performed on a ABIPrism 7700 cycler (Applied Biosystems) using a Taqman PCR kit. […]

all NTS-sites (Nts1-3) = assay: [125I]NT binding, quantitative autoradiography on brain sections of treated mice; conditions: subchronic administration
Experimental: FIG. 6: [^125I]NT binding (0.1 nM, 30 min, RT) to all NTS-sites determined via quantitative autoradiography on frozen glass-mounted brain tissue sections. Data are represented as the average IOD±SEM of three animals determined on at least three different Bregma sections each.
Animal housing and treatment—Male transgenic CRF overexpressing C57BL/6J mice (CRF-OE or TG) and their wild-type littermates (WT) were maintained in an specific pathogen free facility that meets all national and European requirements for animal care. Mice were housed individually 4 weeks before the start of the experiment in a climate-controlled animal colony with a 12 h dark-light cycle (light on 7:00 EST) with free access to food and water. Prior to treatment 3 month old mice were randomized over three groups each comprising 4 wild-type and 4 transgenic animals. One group received no treatment, a second group received vehicle injection 5 days, 2 times per day (10% cyclodextran (CD), pH4) and a third group received 10 mg/kg of a CRH-R1 specific antagonist R121919 in 10% CD following the same regime. 16 hrs after last treatment animals were sacrificed for dissection of brain areas and subsequent isolation of RNA.
Autoradiography—[^125 I]Neurotensin binding and film radiographs on brains of adult male transgenic C57BU6J mice and their wild-type littermates, was performed as described previously by Moyse et al. (12). […] Incubating additional sections in the presence of 1 μM native neurotensin assessed the non-specific staining. […] On each section structures were delineated interactively and pixel gray levels were measured in the outlined areas. The pixel gray levels were converted to radioactivity per mg of tissue using the co-exposed ^125I-standards and averaged over the measured area. Data were analyzed statistically by a two-way ANOVA and concomitant Bonferroni's Post-hoc test using SPSS 11.0 software.

[3] = tested on: gene expression profiles in brain areas of CRH overexpressing mice; assay: Microarray gene expression profiles of brain areas (spectral map analysis, SAM)
Experimental: Animal housing and treatment—Male transgenic CRF overexpressing C57BL/6J mice (CRF-OE or TG) and their wild-type littermates (WT) were maintained in an specific pathogen free facility that meets all national and European requirements for animal care. Mice were housed individually 4 weeks before the start of the experiment in a climate-controlled animal colony with a 12 h dark-light cycle (light on 7:00 EST) with free access to food and water. Prior to treatment 3 month old mice were randomized over three groups each comprising 4 wild-type and 4 transgenic animals. […]
Microarray hybridization—cRNA was prepared as follows. […] Subsequently arrays were scanned with a HP-Laserscanner and data were analyzed with the Microarray Suite Software (Affymetrix). […] Quality of the experiment was assessed based on the percentages present calls (see table). […]
Basically this alignment sets the average intensity of one array to the average measured this normalization compensates for array to array variations in hybridization, washing and staining, ultimately allowing a reasonable comparison between arrays. After normalization, data were analyzed using weighted spectral mapping analysis (SMA) (7). […]

SMILES: CCCN(CCC)c1cc(C)nc2c(-c3cnc(N(C)C)cc3C)c(C)nn12 [R121919]
- Upregulation of Ntsr1 mRNA expression in vehicle treated animals (repeated injection stress) [1]: abolished; also recorded: counteracted
- Upregulation of Ntsr2 mRNA expression in vehicle treated animals (repeated injection stress) [2]: abolished; also recorded: counteracted
- Downregulation of [125I]NT binding at total NT binding level (all NTS-sites (Nts1-3); CRF-OE mice): counteracted the downregulation
- [125I]NT binding capacity compared to vehicle treated animals (all NTS-sites (Nts1-3); stratum radiatum bordering CA1-CA2 region, both WT and CRF-OE animals, p=0.057): upward trend
- Level of [125I]NT binding in treated CRF-OE animals versus untreated animals (all NTS-sites (Nts1-3); stratum radiatum, CRF-OE mice): equaled the level measured in untreated WT-animals; also recorded: equaled that in untreated animals
- Changes in gene expression profile of CRH overexpressing (Tg) versus WT animals ([3]; 5 day treatment, all studied brain areas, exemplified by pituitary spectral map, listed as CRH-R1 antagonist): not affected (or only to a limited degree); also recorded: does not lead to a general ‘normalization’
- Effect on expression levels at the pituitary level ([3]; transgenic animals, pituitary): some effect of the compound is measured
